Patent US12662479B2 (Foghorn Therapeutics Inc., priority 2020, dated 2026)
Where a name gives a salt, the structure may show the parent alone.

Tests used:
HiBit-BRM fusion protein = target: T1, HiBit-BRM fusion protein (Homo sapiens, UniProt P51531); test: HiBiT-BRM cell-based degradation assay (Nano-Glo HiBiT Lytic Detection, 24 h); conditions: HeLa cells expressing HiBiT-BRM; for DC50: read-out: BRM HiBit Degradation IC50; for BRM HiBit Degradation Maximum measured: top dose 30 μM
T1 construct: expressed in transfected cells
In short: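 HeLa cells stably expressing HiBiT-BRM were treated for 24 h with compounds (10-point 3-fold dilutions, 30 μM final top dose, in duplicate). HiBiT was detected by lytic LgBiT complementation luminescence. % degradation was normalized to DMSO (high control) and 2 μM of a reference BRM/BRG1 degrader (low control).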

[1] = target: T2, HiBit-BRG1 fusion protein (Homo sapiens, UniProt P51532); test: HiBiT-BRG1 cell-based degradation assay (Nano-Glo HiBiT Lytic Detection, 24 h); conditions: HeLa cells expressing HiBit-BRG1 and LgBit; for DC50: read-out: BRG1 HiBit Degradation IC50; for Dmax: HeLa, top dose 30 μM, read-out: BRG1 HiBit Degradation Maximum measured
T2 construct: expressed in transfected cells
In short: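 Stable HeLa line expressing HiBiT-BRG1 and LgBiT, seeded at 5000 cells/well; luminescence read after lytic Nano-Glo HiBiT reagent and 10 min shaking at RT. % degradation normalised between DMSO (high control) and 2 μM reference BRM/BRG1 degrader (low control).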

T2 sequence (P51532 whole entry, the tested form may be a part): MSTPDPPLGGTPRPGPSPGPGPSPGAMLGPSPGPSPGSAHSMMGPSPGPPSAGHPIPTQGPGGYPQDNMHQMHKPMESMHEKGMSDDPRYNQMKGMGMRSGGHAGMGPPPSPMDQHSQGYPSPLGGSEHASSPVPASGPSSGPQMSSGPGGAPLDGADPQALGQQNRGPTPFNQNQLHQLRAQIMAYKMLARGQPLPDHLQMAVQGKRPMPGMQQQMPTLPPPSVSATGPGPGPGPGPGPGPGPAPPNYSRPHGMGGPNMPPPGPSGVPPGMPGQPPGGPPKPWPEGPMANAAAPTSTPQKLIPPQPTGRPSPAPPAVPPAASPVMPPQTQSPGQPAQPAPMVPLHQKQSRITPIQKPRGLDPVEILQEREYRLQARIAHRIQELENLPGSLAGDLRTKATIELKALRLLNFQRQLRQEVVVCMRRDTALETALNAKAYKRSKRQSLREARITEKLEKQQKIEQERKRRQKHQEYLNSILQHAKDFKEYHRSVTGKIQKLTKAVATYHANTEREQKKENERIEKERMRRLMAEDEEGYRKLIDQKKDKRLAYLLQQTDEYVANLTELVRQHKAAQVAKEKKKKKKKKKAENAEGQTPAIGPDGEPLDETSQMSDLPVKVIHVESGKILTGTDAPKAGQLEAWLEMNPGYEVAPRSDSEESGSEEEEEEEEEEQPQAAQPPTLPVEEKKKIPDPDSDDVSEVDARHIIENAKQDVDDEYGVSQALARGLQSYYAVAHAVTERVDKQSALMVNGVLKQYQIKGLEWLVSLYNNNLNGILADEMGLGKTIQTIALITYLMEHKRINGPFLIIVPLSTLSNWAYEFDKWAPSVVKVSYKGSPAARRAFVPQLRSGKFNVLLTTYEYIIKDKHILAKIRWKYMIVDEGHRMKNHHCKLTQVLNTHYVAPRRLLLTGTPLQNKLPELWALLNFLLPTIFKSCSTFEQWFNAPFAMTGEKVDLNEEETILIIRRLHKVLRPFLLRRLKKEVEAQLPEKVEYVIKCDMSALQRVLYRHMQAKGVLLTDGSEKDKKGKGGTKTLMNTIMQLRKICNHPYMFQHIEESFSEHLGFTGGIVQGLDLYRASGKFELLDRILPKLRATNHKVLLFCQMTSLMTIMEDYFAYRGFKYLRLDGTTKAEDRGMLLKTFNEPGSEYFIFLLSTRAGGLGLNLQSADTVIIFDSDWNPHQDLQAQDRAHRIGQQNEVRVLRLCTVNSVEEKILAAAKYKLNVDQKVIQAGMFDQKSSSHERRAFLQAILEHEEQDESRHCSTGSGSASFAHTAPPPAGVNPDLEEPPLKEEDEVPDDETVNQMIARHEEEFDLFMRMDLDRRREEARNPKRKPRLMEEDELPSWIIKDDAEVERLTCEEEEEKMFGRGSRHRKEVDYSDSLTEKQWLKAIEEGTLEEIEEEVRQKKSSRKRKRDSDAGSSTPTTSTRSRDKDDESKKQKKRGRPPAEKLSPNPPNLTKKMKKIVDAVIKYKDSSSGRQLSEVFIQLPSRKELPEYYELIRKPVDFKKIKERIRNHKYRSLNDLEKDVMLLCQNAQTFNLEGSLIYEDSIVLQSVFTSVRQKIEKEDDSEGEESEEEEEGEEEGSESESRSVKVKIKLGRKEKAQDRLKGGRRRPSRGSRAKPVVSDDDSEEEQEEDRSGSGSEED
T1 sequence (P51531 whole entry, the tested form may be a part): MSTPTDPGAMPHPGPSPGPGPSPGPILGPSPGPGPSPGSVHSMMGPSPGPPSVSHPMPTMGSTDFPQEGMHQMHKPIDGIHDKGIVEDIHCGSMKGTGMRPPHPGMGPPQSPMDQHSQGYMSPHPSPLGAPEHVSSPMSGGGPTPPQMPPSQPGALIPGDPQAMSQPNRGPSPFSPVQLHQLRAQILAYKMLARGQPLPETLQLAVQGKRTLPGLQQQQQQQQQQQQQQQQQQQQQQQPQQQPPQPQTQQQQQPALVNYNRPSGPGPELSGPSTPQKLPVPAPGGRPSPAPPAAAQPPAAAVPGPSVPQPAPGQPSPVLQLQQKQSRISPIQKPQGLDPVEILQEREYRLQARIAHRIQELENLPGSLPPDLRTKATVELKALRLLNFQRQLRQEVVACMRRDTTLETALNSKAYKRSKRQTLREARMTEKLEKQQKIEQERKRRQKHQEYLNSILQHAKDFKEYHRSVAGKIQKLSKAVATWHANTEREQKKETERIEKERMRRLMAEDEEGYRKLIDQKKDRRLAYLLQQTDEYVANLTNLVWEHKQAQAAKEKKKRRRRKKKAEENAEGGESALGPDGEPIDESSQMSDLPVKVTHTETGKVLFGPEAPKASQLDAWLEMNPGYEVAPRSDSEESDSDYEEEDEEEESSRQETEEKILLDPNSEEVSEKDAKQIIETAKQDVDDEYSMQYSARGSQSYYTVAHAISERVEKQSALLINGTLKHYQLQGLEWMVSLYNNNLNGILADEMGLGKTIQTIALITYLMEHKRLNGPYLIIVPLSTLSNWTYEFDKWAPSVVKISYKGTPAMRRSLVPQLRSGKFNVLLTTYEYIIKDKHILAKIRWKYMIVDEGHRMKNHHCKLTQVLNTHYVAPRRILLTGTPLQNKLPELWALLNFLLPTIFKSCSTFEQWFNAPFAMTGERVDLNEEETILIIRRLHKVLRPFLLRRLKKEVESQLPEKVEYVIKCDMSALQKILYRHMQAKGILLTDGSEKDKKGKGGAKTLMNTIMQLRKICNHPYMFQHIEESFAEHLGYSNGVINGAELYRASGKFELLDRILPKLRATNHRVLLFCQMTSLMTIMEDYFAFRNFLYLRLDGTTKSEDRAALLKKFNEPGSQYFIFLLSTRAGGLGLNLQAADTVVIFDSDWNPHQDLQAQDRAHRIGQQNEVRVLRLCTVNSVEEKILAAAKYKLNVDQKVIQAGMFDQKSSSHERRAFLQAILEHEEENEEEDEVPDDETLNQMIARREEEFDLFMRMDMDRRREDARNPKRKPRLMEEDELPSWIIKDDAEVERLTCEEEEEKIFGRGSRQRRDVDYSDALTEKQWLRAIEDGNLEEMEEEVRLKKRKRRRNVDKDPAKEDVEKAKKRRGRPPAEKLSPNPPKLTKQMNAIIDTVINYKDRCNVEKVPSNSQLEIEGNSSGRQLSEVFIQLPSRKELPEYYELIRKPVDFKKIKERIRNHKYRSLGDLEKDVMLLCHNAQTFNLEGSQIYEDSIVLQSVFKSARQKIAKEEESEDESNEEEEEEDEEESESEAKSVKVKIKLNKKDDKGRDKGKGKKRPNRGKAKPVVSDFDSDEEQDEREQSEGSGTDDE

SMILES	DC50 (HiBit-BRM fusion protein) [µM]	BRM HiBit Degradation Maximum measured (HiBit-BRM fusion protein)	DC50 [1] [µM]	Dmax [1] [%]
CS(=O)(=O)n1ccc(C(=O)N[C@@H](COCc2ccc(C(=O)NCCOc3ccc4c(c3)C(=O)N(C3CCC(=O)NC3=O)C4=O)cc2)C(=O)Nc2nc(-c3ccccc3)cs2)c1 (stereo partly drawn) [Compound 200, N-(2-[[2-(2,6-dioxopiperidin-3-yl)-1,3-dioxoisoindol-5-yl]oxy]ethyl)-4-[[(2S)-2-[(1-methanesulfonylpyrrol-3-yl)formamido]-2-[(4-phenyl-1,3-thiazol-2-yl)carbamoyl]ethoxy]methyl]benzamide]	> 10	C (‘C’ = Maximum degradation <50%)	> 10	< 50
CS(=O)(=O)n1ccc(C(=O)N[C@@H](CCOCCCC(=O)N2CC3(CCN(CCCNc4ccc5c(c4)C(=O)N(C4CCC(=O)NC4=O)C5=O)CC3)C2)C(=O)Nc2nc(-c3ccccc3)cs2)c1 (stereo partly drawn) [Compound 222, (2S)-4-[4-[7-(3-[[2-(2,6-dioxopiperidin-3-yl)-1,3-dioxoisoindol-5-yl]amino]propyl)-2,7-diazaspiro[3.5]nonan-2-yl]-4-oxobutoxy]-2-[(1-methanesulfonylpyrrol-3-yl)formamido]-N-(4-phenyl-1,3-thiazol-2-yl)butanamide; formic acid]	> 10	C (‘C’ = Maximum degradation <50%)	> 10	< 50
CS(=O)(=O)n1ccc(C(=O)NCC(=O)Nc2nc(-c3cccc(-c4cccc(CNC(=O)CCCCCCOc5cccc6c5C(=O)N(C5CCC(=O)NC5=O)C6=O)c4)c3)cs2)c1 (stereo not shown) [Compound 43, N-(2-((4-(3′-((7-((2-(2,6-dioxopiperidin-3-yl)-1,3-dioxoisoindolin-4-yl)oxy)heptanamido)methyl)-[1,1′-biphenyl]-3-yl)thiazol-2-yl)amino)-2-oxoethyl)-1-(methylsulfonyl)-1H-pyrrole-3-carboxamide]	> 10	C (‘C’ = Maximum degradation <50%)	0.1 to 1	50 to 75
Cc1ncsc1-c1ccc(CNC(=O)[C@@H]2C[C@@H](O)CN2C(=O)[C@@H](NC(=O)CCCCCCCNC(=O)CCCOCC[C@H](NC(=O)c2ccn(S(C)(=O)=O)c2)C(=O)Nc2nc(-c3ccccc3)cs2)C(C)(C)C)cc1 [Compound 218, (2S,4R)-4-hydroxy-1-[(2S)-2-(8-[4-[(3S)-3-[(1-methanesulfonylpyrrol-3-yl)formamido]-3-[(4-phenyl-1,3-thiazol-2-yl)carbamoyl]propoxy]butanamido]octanamido)-3,3-dimethylbutanoyl]-N-[[4-(4-methyl-1,3-thiazol-5-yl)phenyl]methyl]pyrrolidine-2-carboxamide]	> 10	C (‘C’ = Maximum degradation <50%)	> 10	< 50
CS(=O)(=O)n1ccc(C(=O)NCC(=O)Nc2nc(-c3cccc(-c4ccnc(C5(C(=O)N6CCC(C7CCN(C(=O)COc8cccc9c8C(=O)N(C8CCC(=O)NC8=O)C9=O)CC7)CC6)CC5)c4)c3)cs2)c1 (stereo not shown) [Compound 14, N-(2-((4-(3-(2-(1-(1′-(2-((2-(2,6-dioxopiperidin-3-yl)-1,3-dioxoisoindolin-4-yl)oxy)acetyl)-[4,4′-bipiperidine]-1-carbonyl)cyclopropyl)pyridin-4-yl)phenyl)thiazol-2-yl)amino)-2-oxoethyl)-1-(methylsulfonyl)-1H-pyrrole-3-carboxamide]	> 10	C (‘C’ = Maximum degradation <50%)	> 10	< 50
Cc1ncsc1-c1ccc(CNC(=O)[C@@H]2C[C@@H](O)CN2C(=O)[C@@H](NC(=O)CCCCCCCCCCCCC(=O)NCc2cccc(-c3cccc(-c4csc(NC(=O)CNC(=O)c5ccn(S(C)(=O)=O)c5)n4)c3)c2)C(C)(C)C)cc1 [Compound 118, N1-((S)-1-((2S,4R)-4-hydroxy-2-((4-(4-methylthiazol-5-yl)benzyl)carbamoyl)pyrrolidin-1-yl)-3,3-dimethyl-1-oxobutan-2-yl)-N14-((3′-(2-(2-(1-(methylsulfonyl)-1H-pyrrole-3-carboxamido)acetamido)thiazol-4-yl)-[1,1′-biphenyl]-3-yl)methyl)tetradecanediamide]	0.1 to 1	B (‘B’ = Maximum degradation ≥50% and ≤75%)	0.1 to 1	50 to 75
Cc1ncsc1-c1ccc(CNC(=O)[C@@H]2C[C@@H](O)CN2C(=O)[C@@H](NC(=O)CN2CC3(CN(CC(=O)NCc4cccc(-c5cccc(-c6csc(NC(=O)CNC(=O)c7ccn(S(C)(=O)=O)c7)n6)c5)c4)C3)C2)C(C)(C)C)cc1.O=C(O)C(F)(F)F [Compound 166, (2S,4R)-4-hydroxy-1-[(2S)-2-(2-[6-[([[3′-(2-[2-[(1-methanesulfonylpyrrol-3-yl)formamido]acetamido]-1,3-thiazol-4-yl)-[1,1′-biphenyl]-3-yl]methyl]carbamoyl)methyl]-2,6-diazaspiro[3.3]heptan-2-yl]acetamido)-3,3-dimethylbutanoyl]-N-[[4-(4-methyl-1,3-thiazol-5-yl)phenyl]methyl]pyrrolidine-2-carboxamide trifluoroacetate]	0.1 to 1	B (‘B’ = Maximum degradation ≥50% and ≤75%)	> 10	< 50
CS(=O)(=O)n1ccc(C(=O)NCC(=O)Nc2nc(-c3cccc(-c4ccnc(N5CCN(c6ccc7c(c6)C(=O)N(C6CCC(=O)NC6=O)C7=O)CC5)c4)c3)cs2)c1 (stereo not shown) [Compound 165, N-[4-[3-(2-[4-[2-(2,6-dioxopiperidin-3-yl)-1,3-dioxoisoindol-5-yl]piperazin-1-yl]pyridin-4-yl)phenyl]-1,3-thiazol-2-yl]-2-[(1-methanesulfonylpyrrol-3-yl)formamido]acetamide trifluoroacetate]	> 10	C (‘C’ = Maximum degradation <50%)	> 10	< 50
CS(=O)(=O)n1ccc(C(=O)N[C@@H](CCOCCCC(=O)NCCOC2CN(c3ccc4c(c3)C(=O)N(C3CCC(=O)NC3=O)C4=O)C2)C(=O)Nc2nc(-c3ccccc3)cs2)c1 (stereo partly drawn) [Compound 278, (2S)-4-(3-[[2-([1-[2-(2,6-dioxopiperidin-3-yl)-1,3-dioxoisoindol-5-yl]azetidin-3-yl]oxy)ethyl]carbamoyl]propoxy)-2-[(1-methanesulfonylpyrrol-3-yl)formamido]-N-(4-phenyl-1,3-thiazol-2-yl)-butanemide]	> 10	C (‘C’ = Maximum degradation <50%)	> 10	< 50
Cc1ncsc1-c1ccc(CNC(=O)[C@@H]2C[C@@H](O)CN2C(=O)[C@@H](NC(=O)CCCCCCCCCCC(=O)NCc2cccc(-c3cccc(-c4csc(NC(=O)CNC(=O)c5ccn(S(C)(=O)=O)c5)n4)c3)c2)C(C)(C)C)cc1 [Compound 119, N1-((S)-1-((2S,4R)-4-hydroxy-2-((4-(4-methylthiazol-5-yl)benzyl)carbamoyl)pyrrolidin-1-yl)-3,3-dimethyl-1-oxobutan-2-yl)-N12-((3′-(2-(2-(1-(methylsulfonyl)-1H-pyrrole-3-carboxamido)acetamido)thiazol-4-yl)-[1,1′-biphenyl]-3-yl)methyl)dodecanediamide]	0.1 to 1	A (‘A’ = Maximum degradation >75%)	0.1 to 1	> 75
CS(=O)(=O)n1ccc(C(=O)N[C@@H](COCc2ccc(C(=O)NCCOc3cccc(OCCNc4cccc5c4C(=O)N(C4CCC(=O)NC4=O)C5=O)c3)cc2)C(=O)Nc2nc(-c3ccccc3)cs2)c1 (stereo partly drawn) [Compound 206, N-[2-[3-(2-[[2-(2,6-dioxopiperidin-3-yl)-1,3-dioxoisoindol-4-yl]amino]ethoxy)phenoxy]ethyl]-4-[[(2S)-2-[(1-methanesulfonylpyrrol-3-yl)formamido]-2-[(4-phenyl-1,3-thiazol-2-yl)carbamoyl]ethoxy]methyl]benzamide]	> 10	C (‘C’ = Maximum degradation <50%)	> 10	< 50
Cc1ncsc1-c1ccc(CNC(=O)[C@@H]2C[C@@H](O)CN2C(=O)[C@@H](NC(=O)COCCOCCOCCNC(=O)c2ccc(COC[C@H](NC(=O)c3ccn(S(C)(=O)=O)c3)C(=O)Nc3nc(-c4ccccc4)cs3)cc2)C(C)(C)C)cc1 [Compound 189, (2S,4R)-4-hydroxy-1-[(2S)-2-[2-[2-(2-[2-[(4-[[(2S)-2-[(1-methanesulfonylpyrrol-3-yl)formamido]-2-[(4-phenyl-1,3-thiazol-2-yl)carbamoyl]ethoxy]methyl]phenyl)formamido]ethoxy]ethoxy)ethoxy]acetamido]-3,3-dimethylbutanoyl]-N-[[4-(4-methyl-1,3-thiazol-5-yl)phenyl]methyl]pyrrolidine-2-carboxamide]	> 10	C (‘C’ = Maximum degradation <50%)	> 10	< 50
CN(CCNC(=O)CN(C)c1cc(-c2cccc(-c3csc(NC(=O)CNC(=O)c4ccn(S(C)(=O)=O)c4)n3)c2)ccn1)CCNc1cccc2c1C(=O)N(C1CCC(=O)NC1=O)C2=O (stereo not shown) [Compound 21, N-(2-((4-(3-(2-((2-((2-((2-((2-(2,6-dioxopiperidin-3-yl)-1,3-dioxoisoindolin-4-yl)amino)ethyl)(methyl)amino)ethyl)amino)-2-oxoethyl)(methyl)amino)pyridin-4-yl)phenyl)thiazol-2-yl)amino)-2-oxoethyl)-1-(methylsulfonyl)-1H-pyrrole-3-carboxamide]	> 10	C (‘C’ = Maximum degradation <50%)	> 10	< 50
